{"source": "paper PMC12291464", "about": "“Modifying Antifungal Peptides as Safe Food Preservatives” (Journal of Agricultural and Food Chemistry, 2025)", "test_system": "filamentous fungi conidia (spores)", "test": "Fungicidal assay (CFU log reduction)", "assay_type": "cell-based", "conditions": "8 μM H2O2", "description": "A 10^4 CFU/mL conidia load was incubated in yeast extract (YE) medium at 37 °C for and 25 °C for and at 200 rpm for 4 h, and 100 μL was transferred to 900 μL of PBS with peptide (final conidia load = 10^3 CFU/mL). The negative control had no peptides, and for the positive control, we used H2O2 (final concentration of 8 μM). The treated conidia were incubated for an additional 4 h at the same temperature at 200 rpm. Once the second incubation was over, the inoculum suspension was diluted, and 100 μL of both the original and the dilution was spread on Petri plates with PDA with tetracycline (10 μg/mL) and chloramphenicol (25 μg/mL) medium to exclude the growth of bacteria. The plates were incubated at matching temperatures depending on the strain. After 48 h, the CFU/mL was calculated; CFU/mL = number of counted CFU × 10^–n (n = serial dilution).\n2 Fungicidal activity of BP100 and P-113 and their derivatives. Spores were counted using a hemocytometer and diluted to […]. After 4 h of incubation with the selected peptides in two different concentrations (25 and 100 μM), samples were diluted and both original and diluted samples were plated. Colonies were counted after 48 h of incubation and are presented as the log reduction of CFU/mL. […] The experiments were repeated 3 times (biological repeats) in triplicate (average ± SEM). […]"}
{"smiles": "OO", "note": "[H2O2]", "values": [{"measurement": "fungicidal activity, positive control", "value": "completely eradicated"}]}
